Results from ChEMBL document CHEMBL3091385, “Radionuclide labeling and evaluation of candidate radioligands for PET imaging of histone deacetylase in the brain” (Bioorg Med Chem Lett, 2013).

Key:
[1] = Lipophilicity, log D of the compound at pH 7.4; format: physicochemical; conditions: buffer
[2] = Drug uptake in iv dosed baboon putamen after 90 mins by PET analysis; format: ADME, organism-based; conditions: papio anubis, in vivo
[3] = Drug uptake in iv dosed baboon kidney after 90 mins by PET analysis in presence of SAHA; format: ADME, organism-based; conditions: papio anubis, in vivo
[4] = Drug uptake in iv dosed baboon heart after 90 mins by PET analysis in presence of SAHA; format: ADME, organism-based; conditions: papio anubis, in vivo
[5] = Drug uptake in iv dosed baboon caudate after 90 mins by PET analysis; format: ADME, organism-based; conditions: papio anubis, in vivo
Brain [6] = experiment: Drug uptake in iv dosed baboon whole brain after 90 mins by PET analysis; format: ADME, organism-based; conditions: papio anubis, in vivo
[7] = Drug uptake in iv dosed baboon liver after 90 mins by PET analysis in presence of SAHA; format: ADME, organism-based; conditions: papio anubis, in vivo
[8] = Protein binding in plasma (unknown origin); format: ADME, cell-free; conditions: unidentified, read-out: PPB (converted)
[9] = Drug uptake in iv dosed baboon kidney after 90 mins by PET analysis; format: ADME, organism-based; conditions: papio anubis, in vivo
[10] = Drug uptake in iv dosed baboon liver after 90 mins by PET analysis; format: ADME, organism-based; conditions: papio anubis, in vivo
[11] = Drug uptake in iv dosed baboon heart after 90 mins by PET analysis; format: ADME, organism-based; conditions: papio anubis, in vivo
Brain [12] = experiment: Drug uptake in iv dosed baboon brain after 90 mins by PET analysis; format: ADME, organism-based; conditions: papio anubis, in vivo
[13] = Drug uptake in iv dosed baboon cerebellum after 90 mins by PET analysis; format: ADME, organism-based; conditions: papio anubis, in vivo

Structure (SMILES)	logD ([1]; read-out: logD)	logD [1]	Drug uptake [2]	Drug uptake [3]	Drug uptake [4]	Drug uptake [5]	Drug uptake (Brain [6])	Drug uptake [7]	fraction unbound [8]	Drug uptake [9]	Drug uptake [10]	Drug uptake [11]	Drug uptake (Brain [12])	Drug uptake [13]
Nc1ccccc1NC(=O)c1ccc(CN[11C](=O)OCc2cccnc2)cc1	1.79													
O=C(C[18F])NCCCCCC(=O)Nc1ccccc1		1.39												
[11CH3]Oc1ccc(C(=O)CCCCCCC(=O)NO)cc1	0.5		Active	Active	Active	Active	Active	Active	0.085	Active	Active	Active	Active	Active
